Where a name gives a salt, the structure may show the parent alone.
Assays:
[1] = system: 60 human tumor cell lines; conditions: 5-fluorouracil comparison value; cited from earlier work
[2] = literature; cited from earlier work
[3] = literature; cited from earlier work; remark: listed apart in the source
[4] = system: acetic acid induced mouse writhes; test: Acetic acid induced mouse writhes (analgesic activity); format: in vivo, mice; conditions: oral
Procedure: Analgesic activity was evaluated by a procedure similar to that described by Koster et al. [R. Koster, et al., Fed. Proc., 18, 412 (1959)]. About one hour after oral administration of test compounds to mice, 0.1 ml/10 g body weight of acetic acid was intraperitoneally injected. About five minutes later, the number of writhes of each mouse was counted for a period of about 20 minutes. The analgesic effect was manifested as a reduction in the number of writhes. "Compound numbers" refer to compounds whose synthesis is illustrated in the corresponding Example number. The P values are the results of T-tests, which are well known to those skilled in the art.

[5] = system: 60 human tumor cell lines; test: National Cancer Institute in vitro tumor cell screen; format: cell-based; parameters: key to Differential Cellular Sensitivity GI50, tumor cell line subpanels / Differential Cellular Sensitivity LC50, tumor cell line subpanels / Differential Cellular Sensitivity TGI, tumor cell line subpanels: LEU: Leukemia/lymphoma; LNS: Nonsmall cell lung; COL: Colon; MEL: Melanoma; OVA: Ovary; REN: Kidney; SCL: Small cell lung; conditions: for GI50 / IC100 / LC50: Homo sapiens, molar concentration, mean of all cell lines; for GI50: 50% inhibition of cell proliferation, read-out: Mean response of all cell lines (Log) GI50 (converted); for IC100: 100% inhibition of cell proliferation, read-out: Mean response of all cell lines (Log) TGI (converted); for Differential Cellular Sensitivity GI50, tumor cell line subpanels: subpanels for GI50; for Differential Cellular Sensitivity LC50, tumor cell line subpanels: subpanels for LC50; for Differential Cellular Sensitivity TGI, tumor cell line subpanels: subpanels for TGI; for LC50: 50% of cell population killed, read-out: Mean response of all cell lines (Log) LC50 (converted)
Procedure: In the assay, a candidate compound was tested for its ability to inhibit tumor cell growth. A dose response curve of percent cell growth versus compound concentration over a concentration range of 10^-9 to 10^-4 molar of each test compound was established to determine GI50, TGI and LC50. GI50 and TGI denote that cell proliferation was inhibited by 50% and 100% respectively. LC50 denotes that 50% of cell population was killed. The selectivity of a compound towards a certain type of tumor cell line was evaluated from mean graphs which compared the relative drug concentrations required to produce the same level of response (e.g. GI50) in each cell line. A differential cellular sensitivity index was calculated by taking the difference between the logarithm of GI50 (or TGI, LC50) value for a cell line versus the arithmetic mean of the logarithm of GI50 (or TGI, LC 50) value for all cell line responses measured for a given compound.

[6] = system: Ehrlich ascites carcinoma; test: Antitumor effect on Ehrlich ascites carcinoma, survival; format: in vivo, ICR mice; conditions: 20 mg/kg/day intraperitoneal, 9 days
Procedure: Antitumor effect was measured on Ehrlich ascites carcinoma. Ehrlich ascites carcinoma cells were intraperitoneally administered to ICR mice. After 24 hours, 20 mg/kg/day of the compound whose synthesis is illustrated in Example 1 and Example 2 were each administered to the mice by intraperitoneal route for 9 days. The periods of survival of these animals were examined.

[7] = Acute toxicity; conditions: mouse, in vivo, 4 week old male mice
Procedure: (§1) The acute toxicity of one typical compound of this invention was measured by administering the compound to a group of 4 week old male mice.

[8] = system: male mice; test: Acute toxicity; conditions: mouse, in vivo
Procedure: as §1

[9] = system: carrageenin-induced rat paw edema; test: Carrageenin-induced rat paw edema (anti-inflammatory activity); format: in vivo, Wistar rats; conditions: paw volume at about 3 hours
Procedure: Anti-inflammatory activity was evaluated by examining the inhibitory activity of candidate compounds on carrageenin-induced rat paw edema according to a literature procedure [C. A. Winter, et al., Proc. Soc. Exp. Biol. Med. 111, 544 (1962)]. Test compounds were orally administered about 1 hour or subcutaneously injected about 0.5 hours before the injection of 100 microliters of a 1% suspension of carrageenin in saline into the subcutaneous tissues of the right hind paw of Wistar rats. The paw volumes were measured about 3 hours after carrageenin injection. The paw volumes were compared with that of a control group to give the percentage of inflammation inhibition. The results of these tests are shown in Table I. "Compound numbers" refer to compounds whose synthesis is illustrated in the corresponding Example number. The P values are the results of T-tests, which are well known to those skilled in the art.

[10] = 50.0 mg/kg sc, about 0.5 hours before carrageenin
[11] = 25.0 mg/kg sc, about 0.5 hours before carrageenin
[12] = 96.0 mg/kg po, about 1 hour before carrageenin

Row | SMILES | GI50 [5] [µM] | IC100 [5] [µM] | Differential Cellular Sensitivity GI50, tumor cell line subpanels [5] | Differential Cellular Sensitivity LC50, tumor cell line subpanels [5] | Differential Cellular Sensitivity TGI, tumor cell line subpanels [5] | LC50 [5] [µM] | further results
1 | O=c1[nH]cc(F)c(=O)[nH]1 [5-fluorouracil] |  |  |  |  |  |  | mean log LC50 [1]: -3.5
2 | C=C1C(=O)O[C@H]2C[C@@H](C)[C@@H]3C=CC(=O)[C@@]3(C)C[C@H]12 [Aromaticin] |  |  |  |  |  |  | anti-inflammatory activity (in words) [2]: potent; anticancer activity (in words) [3]: potent
3 | CC(=O)Oc1ccccc1C(=O)O [Aspirin, reference compound] |  |  |  |  |  |  | Inhibition of acetic acid induced mouse writhes ([4]; 100 mg/kg): 46.7%; Inhibition of acetic acid induced mouse writhes ([4]; 200 mg/kg): 64.0%
4 | CCCC/C=C1\CCC(CN(C)C)C1=O.Cl (centres unmarked) [Compound 1, 2-Dimethylaminomethyl-5-(E)-pentylidene cyclopentanone hydrochloride] | 1.58 | 3.8 | LEU;COL | COL;LNS;REN | COL;REN |  | average number of days of survival [6]: 41 ± 5.4 days; increase of life span (ILS %) over the control [6]: 173.8%; ratio of survival for more than 40 days [6]: 9/11; LD50 ([7]; ip, intraperitoneal): 107 mg/kg; LD50 ([7]; iv, intraveneous): 52 mg/kg; LD50 ([7]; oral): 486 mg/kg; acute toxicity (in words) [8]: low acute toxicity
5 | CCCCCCC/C=C1\CCC(CN(C)C)C1=O.Cl (centres unmarked) [Compound 2, 2-Dimethylaminomethyl-5-(E)-octylidene cyclopentanone hydrochloride] | 5.13 | 12.3 | LEU;COL | COL;LNS;REN | COL;REN |  | average number of days of survival [6]: 33 ± 8.2 days; increase of life span (ILS %) over the control [6]: 112.0%; ratio of survival for more than 40 days [6]: 3/9
6 | CC(C)=C1CCC(CN(C)C)C1=O.Cl (centres unmarked) [Compound 3, 2-Dimethylaminomethyl-5-(1-methylethylidene) cyclopentanone hydrochloride] | 19.1 | 40.7 | LEU | SCL | COL;LEU | 67.6 | 
7 | CCOC(=O)COc1ccccc1/C=C1\CCC(CN(C)C)C1=O.Cl (centres unmarked) [Compound 4, 2-Dimethylaminomethyl-5-(E)-(2-ethoxycarbonylmethoxyl-benzylidene) cyclopentanone hydrochloride] | 6.31 | 15.8 | LEU | CNS;LNS;MEL | LEU |  | 
8 | CC(/C=C1\CCC(CN(C)C)C1=O)c1cccc(Br)c1.Cl (centres unmarked) [Compound 5, 2-Dimethylaminomethyl-5-(E)-[2-(3-bromophenyl)propylidene] cyclopentanone hydrochloride] | 12.6 | 27.5 | LEU | CNS;OVA | LEU | 63.1 | 
9 | CN(C)CC1CC/C(=C\c2ccccc2)C1=O.Cl (centres unmarked) [Compound 6, 2-Dimethylaminomethyl-5-(E)-benzylidene cyclopentanone hydrochloride] |  |  |  |  |  |  | Inhibition of carrageenin induced rat paw edema [9, 10]: 77.4%
10 | COc1ccccc1/C=C1\CCC(CN(C)C)C1=O.Cl (centres unmarked) [Compound 7, 2-Dimethylaminomethyl-5-(E)-[(2-methoxy)benzylidene] cyclopentanone hydrochloride] | 6.31 | 15.8 | LEU | COL | COL | 39.8 | Inhibition of carrageenin induced rat paw edema ([9]; 12.5 mg/kg sc, about 0.5 hours before carrageenin): 44.2%; Inhibition of carrageenin induced rat paw edema [9, 11]: 70.3%; Inhibition of carrageenin induced rat paw edema [9, 10]: 95.8%
11 | CN(C)CC1CC/C(=C\c2ccc(O)cc2)C1=O.Cl (centres unmarked) [Compound 8, 2-Dimethylaminomethyl-5-(E)-[(4-hydroxy)benzylidene] cyclopentanone hydrochloride] | 4.27 | 10.7 | COL;LEU | CNS;REN;SCL | LEU |  | Inhibition of carrageenin induced rat paw edema [9, 10]: 95.9%
12 | O=C1/C(=C/c2ccc(O)cc2)CCC1CNc1ccc(Cl)cc1 (centres unmarked) [Compound 9, 2-[(4-Chlorophenyl)aminomethyl]-5-(E)-[(4-hydroxy)benzylidene] cyclopentanone] | 3.16 | 10 | COL;LEU;SCL | COL | LEU;SCL | 30.9 | 
13 | COc1ccccc1/C=C1\CCC(CN2CCOCC2)C1=O.Cl (centres unmarked) [Compound 10, 2-Morpholinomethyl-5-(E)-[(2-methoxy)benzylidene]cyclopentanone hydrochloride] | 7.94 | 19.5 | LEU;COL | MEL;REN;OVA | LEU | 52.5 | 
14 | COc1ccccc1/C=C1\CCC(Cc2ccccc2)(CN(C)C)C1=O.Cl (centres unmarked) [Compound 11, 2-Benzyl-2-dimethylaminomethyl-5-(E)-[(2-methoxy)benzylidene] cyclopentanone hydrochloride] | 2.19 | 25.1 | LEU;COL | COL | LEU | 83.2 | Inhibition of carrageenin induced rat paw edema [9, 12]: 52.2%; Inhibition of acetic acid induced mouse writhes ([4]; 96 mg/kg): 41.7%
15 | COc1ccc(/C=C2\CCC(Cc3ccccc3)(CN(C)C)C2=O)cc1.Cl (centres unmarked) [Compound 12, 2-Benzyl-2-dimethylaminomethyl-5-(E)-[(4-methoxy)benzylidene] cyclopentanone hydrochloride] | 35.5 | 77.6 | COL;MEL | SCL | LEU;SCL |  | Inhibition of carrageenin induced rat paw edema [9, 12]: 57.3%; Inhibition of acetic acid induced mouse writhes ([4]; 48 mg/kg): 45.6%; Inhibition of acetic acid induced mouse writhes ([4]; 96 mg/kg): 86.6%
16 | CN(C)CCC1(C2=CCCC2)CC/C(=C\c2ccc(Cl)cc2)C1=O (centres unmarked) [Compound 13, 2-(1-Cyclopenten-1-yl)-2-dimethylaminoethyl-5-(E)-[(4-chloro)benzylidene]cyclopentanone hydrochloride] | 7.08 | 19.1 | MEL | MEL | MEL | 44.7 | 
17 | C=C1C(=O)O[C@@H]2C[C@@H](C)[C@@H]3C=CC(=O)[C@@]3(C)[C@@H](O)[C@H]12 [Helenalin] |  |  |  |  |  |  | anti-inflammatory activity (in words) [2]: potent; anticancer activity (in words) [3]: potent
18 | CC(C)Cc1ccc(C(C)C(=O)O)cc1 (centres unmarked) [Ibuprofen, reference compound] |  |  |  |  |  |  | Inhibition of carrageenin induced rat paw edema [9, 11]: 72.9%; Inhibition of carrageenin induced rat paw edema ([9]; 52.0 mg/kg po, about 1 hour before carrageenin): 54.9%
19 | C[C@@H]1C[C@@H]2OC(=O)[C@]3(C)[C@H]2[C@@H](OC3(C)O)[C@]2(C)C(=O)C=C[C@@H]12 (some centres unmarked) [Tenulin] |  |  |  |  |  |  | anti-inflammatory activity (in words) [2]: potent; anticancer activity (in words) [3]: potent
